ChEMBL document CHEMBL5380795, “Design, Synthesis, and Bioactivity Investigation of Cyclic Lipopeptide Antibiotics Containing Eight to Nine Amino Acids” (J Med Chem, 2023)
≈ marks a conversion by molar mass, not a printed value. Bridge positions count the residues as written; N and C are the ends. Square brackets hold non-standard residues; d marks the D form. Peptide text beside a SMILES is read from it. * marks the point of attachment. X1 = CC[C@H](C)CCCCC(=O)*; Dab = NCC[C@H](N)C(=O)O

Key:
[1] = system: Staphylococcus epidermidis; assay: Antibacterial activity against methicillin resistant Staphylococcus epidermidis clinical isolate 19-5 assessed as inhibition of bacterial growth incubated for 18 to 24 hrs by broth microdilution method; format: functional; conditions: time 18-24 hrs
Staphylococcus aureus [2] = assay: Antibacterial activity against Staphylococcus aureus ATCC 29213 assessed as inhibition of bacterial growth incubated for 18 to 24 hrs by broth microdilution method; format: functional; conditions: time 18-24 hrs
Staphylococcus aureus [3] = assay: Antibacterial activity against methicillin resistant Staphylococcus aureus ATCC 33591 assessed as inhibition of bacterial growth incubated for 18 to 24 hrs by broth microdilution method; format: functional; conditions: time 18-24 hrs
Escherichia coli [4] = assay: Antibacterial activity against KPC producing Escherichia coli ATCC BAA-2340 assessed as inhibition of bacterial growth incubated for 18 to 24 hrs by broth microdilution method; format: functional; conditions: time 18-24 hrs
Pseudomonas aeruginosa [5] = assay: Antibacterial activity against Pseudomonas aeruginosa ATCC 27853 assessed as inhibition of bacterial growth incubated for 18 to 24 hrs by broth microdilution method; format: functional; conditions: time 18-24 hrs
Klebsiella pneumoniae [6] = assay: Antibacterial activity against carbapenem resistant Klebsiella pneumoniae clinical isolate 19-15 assessed as inhibition of bacterial growth incubated for 18 to 24 hrs by broth microdilution method; format: functional; conditions: time 18-24 hrs
Klebsiella pneumoniae [7] = assay: Antibacterial activity against carbapenem resistant Klebsiella pneumoniae clinical isolate 19-17 assessed as inhibition of bacterial growth incubated for 18 to 24 hrs by broth microdilution method; format: functional; conditions: time 18-24 hrs
Acinetobacter baumannii [8] = assay: Antibacterial activity against oxacillinase-27 producing Acinetobacter baumannii NCTC 13304 assessed as inhibition of bacterial growth incubated for 18 to 24 hrs by broth microdilution method; format: functional; conditions: time 18-24 hrs
[9] = system: Staphylococcus epidermidis; assay: Antibacterial activity against methicillin resistant Staphylococcus epidermidis clinical isolate 19-6 assessed as inhibition of bacterial growth incubated for 18 to 24 hrs by broth microdilution method; format: functional; conditions: time 18-24 hrs
Pseudomonas aeruginosa [10] = assay: Antibacterial activity against Pseudomonas aeruginosa clinical isolate 19-1 assessed as inhibition of bacterial growth incubated for 18 to 24 hrs by broth microdilution method; format: functional; conditions: time 18-24 hrs
Acinetobacter baumannii [11] = assay: Antibacterial activity against Acinetobacter baumannii; format: functional
Klebsiella pneumoniae [12] = assay: Antibacterial activity against KPC producing Klebsiella pneumoniae ATCC BAA-1705 assessed as inhibition of bacterial growth incubated for 18 to 24 hrs by broth microdilution method; format: functional; conditions: time 18-24 hrs
Klebsiella pneumoniae [13] = assay: Antibacterial activity against Klebsiella pneumoniae; format: functional
Pseudomonas aeruginosa [14] = assay: Antibacterial activity against carbapenem resistant Pseudomonas aeruginosa clinical isolate 17-1 assessed as inhibition of bacterial growth incubated for 18 to 24 hrs by broth microdilution method; format: functional; conditions: time 18-24 hrs
Acinetobacter baumannii [15] = assay: Antibacterial activity against carbapenem resistant Acinetobacter baumannii clinical isolate 19-8 assessed as inhibition of bacterial growth incubated for 18 to 24 hrs by broth microdilution method; format: functional; conditions: time 18-24 hrs
Escherichia coli [16] = assay: Antibacterial activity against Escherichia coli NCTC 13353 assessed as inhibition of bacterial growth incubated for 18 to 24 hrs by broth microdilution method; format: functional; conditions: time 18-24 hrs
Pseudomonas aeruginosa [17] = assay: Antibacterial activity against carbapenem resistant Pseudomonas aeruginosa clinical isolate 19-3 assessed as inhibition of bacterial growth incubated for 18 to 24 hrs by broth microdilution method; format: functional; conditions: time 18-24 hrs
Escherichia coli [18] = assay: Antibacterial activity against Escherichia coli ATCC 25922 assessed as inhibition of bacterial growth incubated for 18 to 24 hrs by broth microdilution method; format: functional; conditions: time 18-24 hrs
Pseudomonas aeruginosa [19] = assay: Antibacterial activity against Pseudomonas aeruginosa; format: functional
Escherichia coli [20] = assay: Antibacterial activity against Escherichia coli ATCC BAA-2523 assessed as inhibition of bacterial growth incubated for 18 to 24 hrs by broth microdilution method; format: functional; conditions: time 18-24 hrs
Escherichia coli [21] = assay: Antibacterial activity against Escherichia coli; format: functional
Escherichia coli [22] = assay: Antibacterial activity against Escherichia coli clinical isolate 19-2 assessed as inhibition of bacterial growth incubated for 18 to 24 hrs by broth microdilution method; format: functional; conditions: time 18-24 hrs
[23] = Cytotoxicity against human HK-2 cells assessed as inhibition of cell growth incubated for 72 hrs by CCK-8 assay; format: toxicity, cell-based
Candida albicans = assay: Antifungal activity against Candida albicans; format: functional
[24] = system: Staphylococcus epidermidis; assay: Antibacterial activity against Staphylococcus epidermidis; format: functional
[25] = Selectivity index, ratio of IC50 for cytotoxicity against human HK-2 cells to MIC for antibacterial activity against Escherichia coli ATCC BAA-2523; format: toxicity, cell-based
[26] = Plasma protein binding in human at 2 uM incubated for 6 hrs by equilibrium dialysis based LC-MS/MS analysis; format: ADME, cell-free; conditions: read-out: PPB (converted)
Staphylococcus aureus [27] = assay: Antibacterial activity against Staphylococcus aureus; format: functional

SMILES | MIC [1] | MIC (Staphylococcus aureus [2]) | MIC (Staphylococcus aureus [3]) | MIC (Escherichia coli [4]) | MIC (Pseudomonas aeruginosa [5]) | MIC (Klebsiella pneumoniae [6]) | MIC (Klebsiella pneumoniae [7]) | MIC (Acinetobacter baumannii [8]) | MIC [9] | MIC (Pseudomonas aeruginosa [10]) | MIC (Acinetobacter baumannii [11]) | MIC (Klebsiella pneumoniae [12]) | MIC (Klebsiella pneumoniae [13]) | MIC (Pseudomonas aeruginosa [14]) | MIC (Acinetobacter baumannii [15]) | MIC (Escherichia coli [16]) | MIC (Pseudomonas aeruginosa [17]) | MIC (Pseudomonas aeruginosa [19]) | MIC (Escherichia coli [20]) | MIC (Escherichia coli [21]) | further results
CC[C@H](C)CCCCC(=O)N[C@@H](CCN)C(=O)N[C@H](C(=O)N[C@@H](CCN)C(=O)N[C@H]1CCNC(=O)[C@H]([C@@H](C)O)NC(=O)[C@H](CCN)NC(=O)[C@H](CCN)NC(=O)[C@H](CC(C)C)NC(=O)[C@@H](Cc2ccccc2)NC(=O)[C@H](CCN)NC1=O)[C@@H](C)O (X1-[Dab]T[Dab][Dab][Dab][dF]L[Dab][Dab]T; lactam 4-C) | 4 µg/mL (≈ 3.32 µM) | > 64 µg/mL | > 64 µg/mL | ≤ 0.06 µg/mL | 0.5 µg/mL (≈ 0.415 µM) | 0.125 µg/mL (≈ 0.104 µM) | 0.25 µg/mL (≈ 0.208 µM) | ≤ 0.06 µg/mL | 16 µg/mL (≈ 13.3 µM) | 0.25 µg/mL (≈ 0.208 µM) | 1 µg/mL (≈ 0.831 µM) | ≤ 0.06 µg/mL | 1 µg/mL (≈ 0.831 µM) | 0.25 µg/mL (≈ 0.208 µM) | ≤ 0.06 µg/mL | 0.5 µg/mL (≈ 0.415 µM) | 0.125 µg/mL (≈ 0.104 µM) | 0.2 µg/mL (≈ 0.166 µM) | < 0.06 µg/mL | 0.05 µg/mL (≈ 0.0415 µM) | MIC (Escherichia coli [18]): 0.25 µg/mL (≈ 0.208 µM); MIC (Escherichia coli [22]): ≤ 0.06 µg/mL
CCCCCCC[C@@H](O)CC(=O)N[C@H](CCN)C(=O)N[C@H]1CCNC(=O)[C@H](CC(C)C)NC(=O)[C@H](CCN)NC(=O)[C@H](CCN)NC(=O)[C@H](CC(C)C)NC(=O)[C@@H](CC(C)C)NC(=O)[C@H](CCN)NC1=O | 2 µg/mL (≈ 1.98 µM) | > 64 µg/mL | > 64 µg/mL | 8 µg/mL (≈ 7.92 µM) | 1 µg/mL (≈ 0.99 µM) | 16 µg/mL (≈ 15.8 µM) | 16 µg/mL (≈ 15.8 µM) | 8 µg/mL (≈ 7.92 µM) | 16 µg/mL (≈ 15.8 µM) | 2 µg/mL (≈ 1.98 µM) | 4 µg/mL (≈ 3.96 µM) | 16 µg/mL (≈ 15.8 µM) | 0.78 µg/mL (≈ 0.772 µM) | 2 µg/mL (≈ 1.98 µM) | 4 µg/mL (≈ 3.96 µM) | 16 µg/mL (≈ 15.8 µM) | 4 µg/mL (≈ 3.96 µM) | 0.4 µg/mL (≈ 0.396 µM) | 16 µg/mL (≈ 15.8 µM) | 0.1 µg/mL (≈ 0.099 µM) | IC50 at 72 h [23]: 60.7 µg/mL (≈ 60.1 µM); MIC (Candida albicans): 4.7 µg/mL (≈ 4.65 µM); MIC [24]: 0.6 µg/mL (≈ 0.594 µM); selectivity ratio [25]: 3.8; fraction unbound at 6 h, 2 µM [26]: 0.0216; MIC (Staphylococcus aureus [27]): 3.1 µg/mL (≈ 3.07 µM); MIC (Escherichia coli [22]): 16 µg/mL (≈ 15.8 µM)
CC[C@H](C)CCCCC(=O)N[C@@H](CCN)C(=O)N[C@H](C(=O)N[C@@H](CCN)C(=O)N[C@H]1CCNC(=O)[C@H]([C@@H](C)O)NC(=O)[C@H](CCN)NC(=O)[C@H](CCN)NC(=O)[C@H](CC(C)C)NC(=O)[C@@H](CC(C)C)NC(=O)[C@H](CCN)NC1=O)[C@@H](C)O (X1-[Dab]T[Dab][Dab][Dab][dL]L[Dab][Dab]T; lactam 4-C) | – | – | – | – | – | – | – | – | – | – | 1 µg/mL (≈ 0.855 µM) | – | 1 µg/mL (≈ 0.855 µM) | – | – | – | – | 0.2 µg/mL (≈ 0.171 µM) | – | 0.05 µg/mL (≈ 0.0428 µM) | –
